Measured values as given in PubChem BioAssay AID1963868 (Molecular Pharmacology Branch, DTP, NCI, 2024).

System: KRAS PDC tumor spheroids (HUVEC+MSC), viability
Assay: Anticancer human tumor 254851-301-R-J1-PDC patient-derived colon carcinoma cell line growth inhibition [KRAS2]
Details: for IC50: curve of first compound; for viability, T/C: stronger effect = lower value
How it was run: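 KRAS-mutant tumor cells were grown as spheroids with HUVEC endothelial cells and human MSCs as stroma. Targeted agents were tested alone and with KRAS pathway inhibitors. Doses started at or near clinical Cmax, or 10 microM, descending half-log.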

[1] = second compound 0.1 µM, first compound 0.0316 µM
[2] = second compound 0.1 µM, first compound 0.1 µM
[3] = second compound 0.1 µM, first compound 0.316 µM
[4] = second compound 0.1 µM, first compound 1 µM
[5] = second compound 0.1 µM, first compound 3.16 µM
[6] = second compound 0.1 µM, first compound 10 µM
[7] = second compound 0.316 µM, first compound 0.0316 µM
[8] = second compound 0.316 µM, first compound 0.1 µM
[9] = second compound 0.316 µM, first compound 0.316 µM
[10] = second compound 0.316 µM, first compound 1 µM
[11] = second compound 0.316 µM, first compound 3.16 µM
[12] = second compound 0.316 µM, first compound 10 µM
[13] = second compound 1 µM, first compound 0.0316 µM
[14] = second compound 1 µM, first compound 0.1 µM
[15] = second compound 1 µM, first compound 0.316 µM
[16] = second compound 1 µM, first compound 1 µM
[17] = second compound 1 µM, first compound 3.16 µM
[18] = second compound 1 µM, first compound 10 µM
[19] = second compound 3.16 µM, first compound 0.0316 µM
[20] = second compound 3.16 µM, first compound 0.1 µM
[21] = second compound 3.16 µM, first compound 0.316 µM
[22] = second compound 3.16 µM, first compound 1 µM
[23] = second compound 3.16 µM, first compound 3.16 µM
[24] = second compound 3.16 µM, first compound 10 µM
[25] = second compound 10 µM, first compound 0.0316 µM
[26] = second compound 10 µM, first compound 0.1 µM
[27] = second compound 10 µM, first compound 0.316 µM
[28] = second compound 10 µM, first compound 1 µM
[29] = second compound 10 µM, first compound 3.16 µM
[30] = second compound 10 µM, first compound 10 µM
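Further: spheroids exposed to compounds for seven days before readout.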
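Wherever viability, T/C is given: 100% = DMSO vehicle control luminescence of the spheroids.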

## COc1cc2nccc(Oc3ccc(NC(=O)C4(C(=O)Nc5ccc(F)cc5)CC4)cc3)c2cc1OC + CNCc1ccccc1-c1csc(C(C)Nc2nc(C)nc3cc(OC)c(OC)cc23)c1
Second compound 0.1 µM
  IC50: 9.9 µM
Second compound 0.316 µM
  IC50: 7.28 µM
Second compound 1 µM
  IC50: 6.42 µM
Second compound 3.16 µM
  IC50: 1.63 µM
Second compound 10 µM
  IC50: < 0.0316 µM
[1]
  viability, T/C: 102%
[2]
  viability, T/C: 104%
[3]
  viability, T/C: 97.2%
[4]
  viability, T/C: 103%
[5]
  viability, T/C: 101%
[6]
  viability, T/C: 49.6%
[7]
  viability, T/C: 112%
[8]
  viability, T/C: 91.5%
[9]
  viability, T/C: 96.3%
[10]
  viability, T/C: 101%
[11]
  viability, T/C: 85.5%
[12]
  viability, T/C: 36.3%
[13]
  viability, T/C: 107%
[14]
  viability, T/C: 102%
[15]
  viability, T/C: 100%
[16]
  viability, T/C: 99.7%
[17]
  viability, T/C: 82.7%
[18]
  viability, T/C: 29.3%
[19]
  viability, T/C: 82%
[20]
  viability, T/C: 78%
[21]
  viability, T/C: 72.4%
[22]
  viability, T/C: 64.4%
[23]
  viability, T/C: 32.5%
[24]
  viability, T/C: 0.27%
[25]
  viability, T/C: 0.19%
[26]
  viability, T/C: 0.17%
[27]
  viability, T/C: 0.16%
[28]
  viability, T/C: 0.18%
[29]
  viability, T/C: 0.13%
[30]
  viability, T/C: 0.17%

## CC1(C)CCC(CN2CCN(c3ccc(C(=O)NS(=O)(=O)c4ccc(NCC5CCOCC5)c([N+](=O)[O-])c4)c(Oc4cnc5[nH]ccc5c4)c3)CC2)=C(c2ccc(Cl)cc2)C1 + CNCc1ccccc1-c1csc(C(C)Nc2nc(C)nc3cc(OC)c(OC)cc23)c1
Second compound 0.1 µM
  IC50: > 10 µM
Second compound 0.316 µM
  IC50: > 10 µM
Second compound 1 µM
  IC50: 3.12 µM
Second compound 3.16 µM
  IC50: 1.11 µM
Second compound 10 µM
  IC50: < 0.0316 µM
[1]
  viability, T/C: 100%
[2]
  viability, T/C: 104%
[3]
  viability, T/C: 100%
[4]
  viability, T/C: 94.8%
[5]
  viability, T/C: 94%
[6]
  viability, T/C: 86%
[7]
  viability, T/C: 91.9%
[8]
  viability, T/C: 102%
[9]
  viability, T/C: 99.7%
[10]
  viability, T/C: 100%
[11]
  viability, T/C: 87.7%
[12]
  viability, T/C: 81.2%
[13]
  viability, T/C: 93.3%
[14]
  viability, T/C: 102%
[15]
  viability, T/C: 92.9%
[16]
  viability, T/C: 83.2%
[17]
  viability, T/C: 49.6%
[18]
  viability, T/C: 16.4%
[19]
  viability, T/C: 80.4%
[20]
  viability, T/C: 75.1%
[21]
  viability, T/C: 71.6%
[22]
  viability, T/C: 55%
[23]
  viability, T/C: 1.17%
[24]
  viability, T/C: 0.61%
[25]
  viability, T/C: 0.17%
[26]
  viability, T/C: 0.2%
[27]
  viability, T/C: 0.17%
[28]
  viability, T/C: 0.15%
[29]
  viability, T/C: 0.12%
[30]
  viability, T/C: 0.17%
